The values that follow come from patent US11677091B2, “Use of quaternary ammonium salt-type anthraquinone-based active material and salt cavern organic aqueous redox flow battery” (CHINA SALT JINTAN CO., LTD., priority 2020, dated 2023).

The nature of the data set: Electrochemical characterization of the active material (rotating disk electrode, diffusion coefficient, charge transfer rate constant). As to conditions: on a graphite felt electrode. In kind it is physicochemical. The source says: FIG. 2 to FIG. 9 show the characterization of electrochemical performances of the prepared active material.

As to `C[N+](C)(C)CCCOc1cccc2c1C(=O)c1c(OCCC[N+](C)(C)C)cccc1C2=O` [Embodiment 1], the “charge transfer rate constant” value turned out to be 0.00302 cm/s and the diffusion coefficient is 3.94×10^−6 cm^2/s.
